Laboratory results taken from patent publication US8029764B2, “Methods for detection of colorectal cancer” (The Johns Hopkins University, priority 2001, dated 2011).

Test system: colorectal tissue transcripts
Assay: SAGE of normal, adenoma and cancer colorectal tissue (transcript tag counts)
Parameters: species or system human
Summary of the method: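 SAGE libraries from two normal colonic epithelium samples, two colorectal adenomas (FAP patients, >70% neoplastic cells) and two colorectal cancers. Transcripts counted as 15-base 3′ tags from oligo(dT)-selected mRNA; repeated ditags, linkers and MHC-locus tags excluded before statistical library comparison.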

[1] = normal colorectal tissue library 1
[2] = normal colorectal tissue library 2

Row | Sequence | AD1 (SAGE tag count) (SAGE library AD1) | AD2 (SAGE tag count) (SAGE library AD2) | CA1 (SAGE tag count) (SAGE library CA1) | CA2 (SAGE tag count) (SAGE library CA2) | NC1 (SAGE tag count) (SAGE library NC1) | NC2 (SAGE tag count) (SAGE library NC2) | AD1 (SAGE tag count) (adenoma library 1) | AD2 (SAGE tag count) (adenoma library 2) | CA1 (SAGE tag count) (cancer library 1) | CA2 (SAGE tag count) (cancer library 2) | NC1 (SAGE tag count) [1] | NC2 (SAGE tag count) [2]
1 | CCGCTGCACT (chemistry not fully specified) | 55 | 46 | 37 | 30 | 127 | 102 | – | – | – | – | – | –
2 | GGGAAGCAGA (chemistry not fully specified) | 18 | 4 | 8 | 9 | 32 | 17 | – | – | – | – | – | –
3 | CTGTGTGGCT (chemistry not fully specified; the letters are possibly those of the target site) | 1 | 0 | 0 | 0 | 0 | 12 | – | – | – | – | – | –
4 | TGCCGCCCGC (chemistry not fully specified) | – | – | – | – | – | – | 2 | 2 | 1 | 0 | 14 | 5
5 | GGCTCGGGAT (chemistry not fully specified) | 2 | 4 | 3 | 5 | 15 | 11 | – | – | – | – | – | –
6 | GTTTAGAGGG (chemistry not fully specified) | – | – | – | – | – | – | 0 | 0 | 2 | 1 | 5 | 16
7 | GCACCTGTCG (chemistry not fully specified) | 0 | 0 | 1 | 0 | 2 | 9 | – | – | – | – | – | –
8 | CCCTCCCGAA (chemistry not fully specified) | 9 | 14 | 18 | 7 | 89 | 54 | – | – | – | – | – | –
9 | GTAGCAGGTG (chemistry not fully specified) | 11 | 7 | 7 | 7 | 24 | 27 | – | – | – | – | – | –
10 | AGTGGGCTCA (chemistry not fully specified) | 0 | 1 | 0 | 0 | 3 | 8 | – | – | – | – | – | –
11 | TTCTGGTGCG (chemistry not fully specified) | – | – | – | – | – | – | 0 | 0 | 1 | 0 | 8 | 2
12 | GGCACCGTGC (chemistry not fully specified) | 8 | 10 | 8 | 4 | 22 | 44 | – | – | – | – | – | –
13 | ATGACGCTCA (chemistry not fully specified) | 6 | 5 | 3 | 4 | 22 | 18 | – | – | – | – | – | –
14 | ACTCTTGTTG (chemistry not fully specified) | 0 | 0 | 0 | 0 | 7 | 2 | – | – | – | – | – | –
15 | GTCCGAGTGC (chemistry not fully specified) | 0 | 0 | 0 | 0 | 17 | 3 | – | – | – | – | – | –
16 | TTTCTCGTCG (chemistry not fully specified) | – | – | – | – | – | – | 2 | 3 | 0 | 2 | 10 | 16
17 | GACCAGCCCA (chemistry not fully specified) | 3 | 2 | 12 | 5 | 23 | 21 | – | – | – | – | – | –
18 | GCTGGCCCCG (chemistry not fully specified) | 0 | 0 | 0 | 1 | 5 | 11 | – | – | – | – | – | –
